Experiments:
irrigated putting green [1] = experiment: Example 15, 2016 bio-adjuvant/fertility study: visual turfgrass quality rating; assay type: in vivo; conditions: scale 1-9 (1 = worst, 9 = best, 7 = acceptable)
Method: (§1) The study was established in four replications of a randomized block design utilizing 2 ft.×21 ft. plots with 6 inch alleys. Treatments were initially applied on Sep. 13, 2016 with the same sprayer and under the same conditions described in Example 1. Turfgrass quality ratings and biomass ratings were performed as described in Example 1. The plots were trimmed on September 19, October 8, and Oct. 24, 2016 and clippings were also collected as described in Example 1.
(§2) Treatments were re-applied on Sep. 28, 2016 and Oct. 11, 2016. Turfgrass visual growth and quality ratings were taken periodically, along with turfgrass color ratings as taken with a Spectrum Technologies, Inc. TCM 500 NDVI Color Meter and a Spectrum Technologies, Inc. FieldScout CM 1000 Chlorophyll Meter. The study was irrigated as needed to prevent wilt. No background fertility was applied to the study area. The area was sprayed with 26GT fungicide on Sep. 27, 2016 to control dollar spot disease.

irrigated putting green [2] = experiment: Example 15: turfgrass color (chlorophyll) rating, FieldScout CM 1000 Chlorophyll Meter; assay type: in vivo
Method: as §1, §2
The turfgrass color (chlorophyll) rating of Oct.

Structure (SMILES): NC(N)=O [Urea (46-0-0), urea]
- Visual Turfgrass Quality, MEAN (irrigated putting green [1]; Trt. 4, 0.1 lb N/1000 sq. ft. /14 days, Oct. 1 (3 DAT)): 7.0
- Visual Turfgrass Quality, MEAN (irrigated putting green [1]; Trt. 4, 0.1 lb N/1000 sq. ft. /14 days, Oct. 6 (8 DAT)): 7.3
- Visual Turfgrass Quality, MEAN (irrigated putting green [1]; Trt. 4, 0.1 lb N/1000 sq. ft. /14 days, Sept. 19 (6 DAT)): 7.3
- Visual Turfgrass Quality, MEAN (irrigated putting green [1]; Trt. 5, 0.05 lb N/1000 sq. ft. /14 days, Oct. 1 (3 DAT)): 7.0
- Visual Turfgrass Quality, MEAN (irrigated putting green [1]; Trt. 5, 0.05 lb N/1000 sq. ft. /14 days, Oct. 6 (8 DAT)): 6.8
- Visual Turfgrass Quality, MEAN (irrigated putting green [1]; Trt. 5, 0.05 lb N/1000 sq. ft. /14 days, Sept. 19 (6 DAT)): 6.8
- Turfgrass Color (Greenness), MEAN, chlorophyll meter reading (irrigated putting green [2]; Trt. 4, 0.1 lb N/1000 sq. ft. /14 days, Oct. 6): 352.5
- Turfgrass Color (Greenness), MEAN, chlorophyll meter reading (irrigated putting green [2]; Trt. 4, 0.1 lb N/1000 sq. ft. /14 days, Oct. 25): 272.3
- Turfgrass Color (Greenness), MEAN, chlorophyll meter reading (irrigated putting green [2]; Trt. 5, 0.05 lb N/1000 sq. ft. /14 days, Oct. 6): 352.3
- Turfgrass Color (Greenness), MEAN, chlorophyll meter reading (irrigated putting green [2]; Trt. 5, 0.05 lb N/1000 sq. ft. /14 days, Oct. 25): 261

— patent US20170265465A1, “BIORATIONAL TREATMENT PRODUCTS AND METHODS OF USING SAME” (Board of Trustees of Michigan State University, priority 2014, published 2017)
